The results in this text go back to US10494360B2, “Inhibitors of indoleamine 2,3-dioxygenase” (NETHERLANDS TRANSLATIONAL RESEARCH CENTER B.V., priority 2016, dated 2019).

Several values for one entry are separate records, joined by “and”; a condition that tells them apart may be missing. Equal values may be shown once. Where only a bound is given, the exact number is not on record here.

For orientation: IC50 means the concentration that inhibits the measured activity by half.

In the assay the target is IDO1 (Homo sapiens, UniProt P14902). Kind of assay: Biochemical IDO1 assay (NFK GreenScreen). Set-up: Recombinant full-length IDO1 (Seegers, N., et al.) and all other assay components were diluted in IDO1 reaction buffer; made in house. To be noted: for IC50: recombinant full-length IDO1 25 nM, L-tryptophan 100 μM, NFK Green detection, read-out: IC50, inhibitory potency on IDO1; for relative activity of separated isomers: less active / most active isomer of the pair, assay not given. As for the experimental part:
Inhibition of IDO1 activity can be measured by determining the enzymatic conversion of L-tryptophan into N-formylkynurenine (NFK) in a reaction mixture containing IDO1 and test compound. The formation of NFK can be detected directly by, for instance, high-performance liquid chromatography (HPLC) methods, or by intrinsic fluorescence.
Compounds were serially diluted in dimethylsulfoxide (DMSO) and finally in IDO1 reaction buffer, consisting of 50 mM NaH2PO4, pH7.0, supplemented with 0.05% Tween-20 (cat. No. P7949; Sigma Aldrich) and 1% glycerol. Recombinant full-length IDO1 (Seegers, N., et al.) and all other assay components were diluted in IDO1 reaction buffer. […] Subsequently, 10 μl of 0.4 mM of the substrate L-tryptophan was added, i.e., the final concentration of L-tryptophan was 100 μM. The DMSO concentration in the assay was 0.3%. […] Incubation was continued for 60 min at room temperature. Then, 10 μl of NFK Green™ (NTRC, Oss, The Netherlands) was added, the plate was sealed, and the reaction was developed for 3 hours at 37° C. To determine the production of N-formyl kynurenine (NFK), the seal was removed and fluorescence was read on an EnVision multimode reader (Perkin Elmer, Waltham, Mass., USA). IC50 were calculated using XLfit™ software (ID Business Solutions, Ltd., Surrey, U.K.).

Sequence of IDO1 (P14902 whole entry, species assumed): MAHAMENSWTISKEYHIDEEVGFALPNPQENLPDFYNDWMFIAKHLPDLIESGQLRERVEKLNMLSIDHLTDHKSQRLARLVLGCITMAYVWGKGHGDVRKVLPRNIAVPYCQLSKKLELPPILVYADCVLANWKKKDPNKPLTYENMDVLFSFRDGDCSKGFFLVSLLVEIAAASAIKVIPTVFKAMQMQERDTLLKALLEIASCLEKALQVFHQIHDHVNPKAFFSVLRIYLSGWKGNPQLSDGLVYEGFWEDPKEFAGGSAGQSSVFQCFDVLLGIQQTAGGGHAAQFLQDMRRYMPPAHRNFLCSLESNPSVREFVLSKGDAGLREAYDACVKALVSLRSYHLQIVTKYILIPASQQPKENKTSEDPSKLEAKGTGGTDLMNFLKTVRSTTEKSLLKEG

Regarding `O=C1CN(C(=O)c2c(F)cccc2C(F)(F)F)C(c2cccc(Br)c2)N1O` (stereo not drawn) [Example 37, 2-(3-Bromophenyl)-1-[2-fluoro-6-(trifluoromethyl)benzoyl]-3-hydroxy-imidazolidin-4-one], the IC50 was not above 1 µM.

On to `O=C1CN(Cc2c(F)cccc2F)C(c2cccc(Br)c2)N1O` (single isomer, unassigned) [Example 145a, 2-(3-bromophenyl)-1-[(2,6-difluorophenyl)methyl]-3-hydroxy-imidazolidin-4-one], for which the “relative activity of separated isomers” value is “less active isomer” and the IC50 is not above 1 µM.

For `O=C1CN(C(=O)c2ccc(Cc3ccccc3)cc2)C(c2cccc(Br)c2)N1O` (stereo not drawn) [Example 74, 1-(4-Benzylbenzoyl)-2-(3-bromophenyl)-3-hydroxy-imidazolidin-4-one], the IC50 was ≤ 5 µM and 1 to 5 µM.

`Cc1cccc(C2N(O)C(=O)CN2C(=O)c2c(F)cccc2F)c1` (stereo not drawn) [Example 69, 1-(2,6-Difluorobenzoyl)-3-hydroxy-2-(m-tolyl)imidazolidin-4-one]: the IC50 is ≤ 5 µM and 1 to 5 µM.

Take `O=C1CN(C(=O)C2CCC2)C(c2ccc(F)c(Br)c2)N1O` (stereo not drawn) [Example 23, 2-(3-Bromo-4-fluoro-phenyl)-1-(cyclobutanecarbonyl)-3-hydroxy-imidazolidin-4-one]: the IC50 was ≤ 5 µM and 1 to 5 µM.

`CN(CCO)c1cc(F)c(C(=O)N2CC(=O)N(O)C2c2cccc(Br)c2)c(F)c1` (stereo not drawn) [Example 135, 2-(3-Bromophenyl)-1-[2,6-difluoro-4-[2-hydroxyethyl(methyl)amino]benzoyl]-3-hydroxy-imidazolidin-4-one]: the IC50 was ≤ 5 µM and 1 to 5 µM.

Turning to `NS(=O)(=O)N1CCC(C(=O)N2CC(=O)N(O)C2c2cccc(Br)c2)CC1` (stereo not drawn) [Example 101, 4-[2-(3-Bromophenyl)-3-hydroxy-4-oxo-imidazolidine-1-carbonyl]piperidine-1-sulfonamide], the IC50 was ≤ 5 µM and 1 to 5 µM.

`CC(=O)NC(C)(C)C#Cc1cc(F)c(C(=O)N2CC(=O)N(O)C2c2cccc(Br)c2)c(F)c1` (stereo not drawn) [Example 113, N-[3-[4-[2-(3-bromophenyl)-3-hydroxy-4-oxo-imidazolidine-1-carbonyl]-3,5-difluoro-phenyl]-1,1-dimethyl-prop-2-ynyl]acetamide]: the IC50 was ≤ 5 µM and 1 to 5 µM.

With `NS(=O)(=O)NCC#Cc1cc(F)c(C(=O)N2CC(=O)N(O)C2c2cccc(Br)c2)c(F)c1` (single isomer, unassigned) [Example 147b, 2-(3-bromophenyl)-1-[2,6-difluoro-4-[3-(sulfamoylamino)prop-1-ynyl]benzoyl]-3-hydroxy-4-oxo-imidazolidine], the “relative activity of separated isomers” value is reported as “most active isomer” and the IC50 was not above 1 µM.

As to `CC(C)c1cc(C(=O)N2CC(=O)N(O)C2c2cccc(Br)c2)no1` (stereo not drawn) [Example 96, 2-(3-Bromophenyl)-3-hydroxy-1-(5-isopropylisoxazole-3-carbonyl)imidazolidin-4-one], the IC50 is ≤ 5 µM and 1 to 5 µM.

In the case of `O=C1CN(C(=O)c2ccc(F)cc2)C(c2cccc(Br)c2)N1O` (stereo not drawn) [Example 29, 2-(3-Bromophenyl)-1-(4-fluorobenzoyl)-3-hydroxy-imidazolidin-4-one], the half-inhibitory concentration (IC50) was ≤ 5 µM and 1 to 5 µM.

Consider `O=C1CN(C(=O)c2ccc(Cl)cc2Cl)C(c2cccc(Br)c2)N1O` (stereo not drawn) [Example 16, 2-(3-Bromophenyl)-1-(2,4-dichlorobenzoyl)-3-hydroxy-imidazolidin-4-one], for which the IC50 is ≤ 5 µM and 1 to 5 µM.

On to `COc1ccc(C(=O)N2CC(=O)N(O)C2c2cccc(Br)c2)cc1` (stereo not drawn) [Example 18, 2-(3-Bromophenyl)-3-hydroxy-1-(4-methoxybenzoyl)imidazolidin-4-one], for which the IC50 is ≤ 5 µM and 1 to 5 µM.

`O=C1CN(C(=O)c2c(F)cccc2F)C(c2cccc(Br)c2F)N1O` (stereo not drawn) [Example 70, 2-(3-Bromo-2-fluoro-phenyl)-1-(2,6-difluorobenzoyl)-3-hydroxy-imidazolidin-4-one]: the IC50 is ≤ 5 µM and 1 to 5 µM.

`Cc1cccc(F)c1C(=O)N1CC(=O)N(O)C1c1cccc(Br)c1` (stereo not drawn) [Example 88, 2-(3-Bromophenyl)-1-(2-fluoro-6-methyl-benzoyl)-3-hydroxy-imidazolidin-4-one]: the IC50 is ≤ 5 µM and 1 to 5 µM.

`O=C1CN(C(=O)c2ccc(Oc3ccccc3)cc2)C(c2cccc(Br)c2)N1O` (stereo not drawn) [Example 91, 2-(3-Bromophenyl)-3-hydroxy-1-(4-phenoxybenzoyl)imidazolidin-4-one]: the IC50 is ≤ 5 µM and 1 to 5 µM.

In the case of `O=C1CN(Cc2ccccc2F)C(c2cccc(I)c2)N1O` (single isomer, unassigned) [Example 146a, 1-[(2-fluorophenyl)methyl]-3-hydroxy-2-(3-iodophenyl)imidazolidin-4-one], the “relative activity of separated isomers” value is “less active isomer” and the IC50 was not above 1 µM.

For `O=C1CN(C(=O)c2c(F)cc(CCC3CCCCC3)cc2F)C(c2cccc(Br)c2)N1O` (stereo not drawn) [Example 131, 2-(3-Bromophenyl)-1-[4-(2-cyclohexylethyl)-2,6-difluoro-benzoyl]-3-hydroxy-imidazolidin-4-one], the IC50 was ≤ 5 µM and 1 to 5 µM.

Take `CC(c1c(F)cccc1F)N1CC(=O)N(O)C1c1cccc(Br)c1` (stereo not drawn) [Example 141a, 2-(3-Bromophenyl)-1-[1-(2,6-difluorophenyl)ethyl]-3-hydroxy-imidazolidin-4-one]: the “relative activity of separated isomers” value is given as “less active isomer”.

For the compound `O=C1CN(C(=O)c2c(F)cccc2F)C(c2ccnc(Br)c2)N1O` (stereo not drawn) [Example 65, 2-(2-Bromo-4-pyridyl)-1-(2,6-difluorobenzoyl)-3-hydroxy-imidazolidin-4-one], the IC50 was ≤ 5 µM and 1 to 5 µM.

Turning to `O=C1CN(C(=O)c2c(F)cccc2Cl)C(c2ccc(F)c(Br)c2)N1O` (single isomer, unassigned) [Example 143a, 2-(3-bromo-4-fluoro-phenyl)-1-(2-chloro-6-fluoro-benzoyl)-3-hydroxy-imidazolidin-4-one], the “relative activity of separated isomers” value is “less active isomer”; the IC50 is ≤ 5 µM and 1 to 5 µM.

In the case of `O=C1CN(C(=O)c2c(F)cc(-c3ccccc3)cc2F)C(c2cccc(Br)c2)N1O` (stereo not drawn) [Example 117, 2-(3-Bromophenyl)-1-(2,6-difluoro-4-phenyl-benzoyl)-3-hydroxy-imidazolidin-4-one], the IC50 was not above 1 µM.

Take `C[C@@H](c1ccccc1)N1CC(=O)N(O)C1c1cccc(I)c1` (single isomer, unassigned) [Example 140b]: the “relative activity of separated isomers” value is recorded as “most active isomer” and the IC50 was not above 1 µM.

Turning to `O=C1CN(C(=O)c2c(F)cc(-c3cccnc3)cc2F)C(c2cccc(Br)c2)N1O` (stereo not drawn) [Example 123, 2-(3-Bromophenyl)-1-[2,6-difluoro-4-(3-pyridyl)benzoyl]-3-hydroxy-imidazolidin-4-one], the IC50 was ≤ 5 µM and 1 to 5 µM.

As to `O=C1CN(C(=O)c2ccccc2Br)C(c2cccc(Br)c2)N1O` (stereo not drawn) [Example 24, 1-(2-Bromobenzoyl)-2-(3-bromophenyl)-3-hydroxy-imidazolidin-4-one], the IC50 was ≤ 5 µM and 1 to 5 µM.

On to `O=C1CN(C(=O)c2cccnc2Cl)C(c2cccc(Br)c2)N1O` (stereo not drawn) [Example 61, 2-(3-Bromophenyl)-1-(2-chloropyridine-3-carbonyl)-3-hydroxy-imidazolidin-4-one], for which the IC50 is ≤ 5 µM and 1 to 5 µM.

As to `O=C1CN(C(=O)c2c(F)ccc([N+](=O)[O-])c2F)C(c2cccc(Br)c2)N1O` (stereo not drawn) [Example 75, 2-(3-Bromophenyl)-1-(2,6-difluoro-3-nitro-benzoyl)-3-hydroxy-imidazolidin-4-one], the IC50 was not above 1 µM.

For the compound `O=C1CN(C(=O)c2ccccc2)C(c2cccc(Br)c2)N1O` (single isomer, unassigned) [Example 63a, 1-benzoyl-2-(3-bromophenyl)-3-hydroxy-imidazolidin-4-one], the IC50 is not above 1 µM.

Regarding `NS(=O)(=O)NCC#Cc1cc(F)c(C(=O)N2CC(=O)N(O)C2c2cccc(Br)c2)c(F)c1` (stereo not drawn) [Example 111, 2-(3-Bromophenyl)-1-[2,6-difluoro-4-[3-(sulfamoylamino)prop-1-ynyl]benzoyl]-3-hydroxy-4-oxo-imidazolidine], the IC50 was not above 1 µM.

For `CC(C)(N)C#Cc1cc(F)c(C(=O)N2CC(=O)N(O)C2c2cccc(Br)c2)c(F)c1` (stereo not drawn) [Example 112, 1-[4-(3-Amino-3-methyl-but-1-ynyl)-2,6-difluoro-benzoyl]-2-(3-bromophenyl)-3-hydroxy-imidazolidin-4-one], the IC50 is ≤ 5 µM and 1 to 5 µM.

As for `COc1ccc(C(=O)N2CC(=O)N(O)C2c2ccc(F)c(Br)c2)cc1` (stereo not drawn) [Example 47, 2-(3-Bromo-4-fluoro-phenyl)-3-hydroxy-1-(4-methoxybenzoyl)imidazolidin-4-one], the IC50 is ≤ 5 µM and 1 to 5 µM.

In the case of `C[C@@H]1C(=O)N(O)C(c2cccc(Br)c2)N1C(=O)c1ccccc1F` (single isomer, unassigned) [Example 57], the IC50 was ≤ 5 µM and 1 to 5 µM.

For the compound `CC(=O)Nc1ccc(F)c(C(=O)N2CC(=O)N(O)C2c2cccc(Br)c2)c1F` (stereo not drawn) [Example 77, N-[3-[2-(3-bromophenyl)-3-hydroxy-4-oxo-imidazolidine-1-carbonyl]-2,4-difluoro-phenyl]acetamide], the IC50 was not above 1 µM.

For the compound `O=C1CN(C(=O)c2cccc(F)c2)C(c2cccc(Br)c2)N1O` (stereo not drawn) [Example 36, 2-(3-Bromophenyl)-1-(3-fluorobenzoyl)-3-hydroxy-imidazolidin-4-one], the IC50 was not above 1 µM.
